Measured values from patent US7119094B1, “Substituted polycyclic aryl and heteroarpyl pyrazinones useful for selective inhibition of the coagulation cascade” (Warner-Lambert Company, priority 2000, dated 2006).
Where two headings read alike, the source gives them in different places. One block for each compound: values may come before it.

Tests used:
[1] = target: T1, recombinant soluble tissue factor and recombinant human factor VIIa (TF-VIIa) (Homo sapiens, UniProt P08709); assay: TF-VIIa Assay; format: biochemical
T1 construct: conversion of coagulation factor VII to VIIa by Xa; purchased American Diagnostica, Greenwich Conn; host or cells: factor VIIa purchased; soluble TF made in house in E. coli

Human factor Xa = target: T2, Human factor Xa (Homo sapiens, UniProt P00742); assay: Xa Assay; format: biochemical; conditions: for % Inhibition Factor Xa (30 µM): at 30 µM; for IC50: cells without % sign
T2 construct: Human factor Xa (0.3 nM); purchased Enzyme Research Laboratories, South Bend Ind

[2] = target: T3, Trypsin (type 1× from porcine pancreas) (Sus scrofa, UniProt P00761); assay: Trypsin Assay; format: biochemical
T3 construct: Trypsin (5 ug/ml; type 1× from porcine pancreas); purchased Sigma, St. Louis Mo; host or cells: porcine pancreas

Human thrombin [3] = target: T4, Human thrombin (Homo sapiens, UniProt P00734); assay: biochemical
Human thrombin [4] = target: T4, Human thrombin
[5] = cells without % sign, read-out: IC50 TF-VIIa
[6] = cells without % sign, read-out: IC50 Trypsin II

T3 sequence (P00761 9-231): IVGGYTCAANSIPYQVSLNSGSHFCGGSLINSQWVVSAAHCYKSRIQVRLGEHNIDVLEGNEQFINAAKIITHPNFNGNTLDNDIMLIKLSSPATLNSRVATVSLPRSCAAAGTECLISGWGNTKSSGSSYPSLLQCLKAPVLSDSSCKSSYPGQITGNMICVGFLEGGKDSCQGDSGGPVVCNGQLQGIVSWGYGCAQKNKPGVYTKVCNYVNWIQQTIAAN
T1 sequence (P08709 213-466 limits assumed): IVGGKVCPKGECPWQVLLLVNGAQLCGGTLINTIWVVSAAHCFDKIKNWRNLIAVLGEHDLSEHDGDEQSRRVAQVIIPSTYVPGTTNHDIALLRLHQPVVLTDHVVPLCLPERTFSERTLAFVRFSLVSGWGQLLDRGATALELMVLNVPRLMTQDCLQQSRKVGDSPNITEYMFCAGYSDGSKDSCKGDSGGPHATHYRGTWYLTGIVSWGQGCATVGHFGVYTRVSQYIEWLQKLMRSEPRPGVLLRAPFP
T1 sequence (P08709 61-212 limits assumed): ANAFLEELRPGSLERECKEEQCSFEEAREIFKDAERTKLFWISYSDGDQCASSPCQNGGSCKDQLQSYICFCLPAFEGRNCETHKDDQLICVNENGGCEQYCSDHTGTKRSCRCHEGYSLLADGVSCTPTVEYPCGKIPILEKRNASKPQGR
T1 sequence (P13726 33-251 partner limits assumed): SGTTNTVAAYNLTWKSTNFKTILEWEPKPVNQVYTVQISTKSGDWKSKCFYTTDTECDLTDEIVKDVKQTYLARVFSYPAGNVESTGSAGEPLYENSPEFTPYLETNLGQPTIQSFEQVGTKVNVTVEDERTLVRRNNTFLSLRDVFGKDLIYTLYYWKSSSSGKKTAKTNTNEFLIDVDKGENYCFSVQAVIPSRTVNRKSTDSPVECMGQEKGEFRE
T2 sequence (P00742 235-488 limits assumed): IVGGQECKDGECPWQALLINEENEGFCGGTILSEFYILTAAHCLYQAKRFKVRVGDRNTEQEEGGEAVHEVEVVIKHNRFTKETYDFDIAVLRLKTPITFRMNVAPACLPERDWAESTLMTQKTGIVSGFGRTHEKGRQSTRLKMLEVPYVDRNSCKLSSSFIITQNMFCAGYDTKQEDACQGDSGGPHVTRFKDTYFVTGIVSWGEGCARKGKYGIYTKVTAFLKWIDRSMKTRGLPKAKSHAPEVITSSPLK
T2 sequence (P00742 41-179 limits assumed): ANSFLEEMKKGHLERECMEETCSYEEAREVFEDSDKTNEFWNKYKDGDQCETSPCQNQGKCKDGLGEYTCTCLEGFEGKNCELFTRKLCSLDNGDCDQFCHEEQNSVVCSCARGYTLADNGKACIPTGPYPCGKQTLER

SMILES: CC(C(=O)NCc1ccc(C(=N)N)cc1)n1c(-c2ccccc2)c(Cl)nc(NC2CCC2)c1=O (centres unmarked) [Example 1517-11]
IC50 [1, 5]: 3000 nM | % Inhibition Factor Xa (30 µM) (Human factor Xa; cells with % sign, and bare 0): 0% | IC50 [2, 6]: 1900 nM

SMILES: N=C(N)c1ccc(C(=O)NCCn2c(-c3cccc(N)c3)c(Cl)nc(NC3CCC3)c2=O)cc1 [Example 136]
IC50 (Human thrombin [3]): > 30000 nM

SMILES: CCC(C)(C)Nc1nc(Cl)c(-c2cccc(N)c2)n(CC(=O)NCc2ccc(C(=N)N)cc2)c1=O [1526-06]
IC50 [1, 5]: 170 nM | IC50 (Human factor Xa): > 30000 nM | IC50 [2, 6]: 210 nM

SMILES: N=C(N)c1ccc(CNC(=O)Cn2c(-c3cccc(N)c3)c(Cl)nc(NC3CC4CCC3C4)c2=O)cc1 (centres unmarked) [1526-30]
IC50 [1, 5]: 80 nM | IC50 (Human factor Xa): > 30000 nM | IC50 [2, 6]: 200 nM

SMILES: O=C(Cn1c(-c2ccc(-c3ccccc3)cc2)c(Cl)nc(NCc2ccccc2)c1=O)NCCc1cccnc1 [Example E-0110]
% Inhibition TF-VIIa (100 νM) [1]: 0% | % Inhibition Thrombin II (100 νM) (Human thrombin [4]): 0%

SMILES: Nc1cccc(-c2c(Cl)nc(NC3CCC3)c(=O)n2CC(=O)N2CCC3(CC2)OCCO3)c1 [1543-41]
% Inhibition TF-VIIa (30 µM) ([1]; at 30 µM, cells with % sign): 3% | % Inhibition Factor Xa (30 µM) (Human factor Xa; cells with % sign, and bare 0): 9% | % Inhibition Trypsin II (30 µM) ([2]; at 30 µM, cells with % sign): 6%

SMILES: O=C(Cn1c(-c2ccc(-c3ccccc3)cc2)c(Cl)nc(NCCc2ccc(Cl)cc2)c1=O)NCCc1cccnc1 [Example E-0119]
% Inhibition Trpysin II (100 νM) [2]: 10% | % Inhibition Thrombin II (100 νM) (Human thrombin [4]): 0%

SMILES: O=C(Cn1c(-c2ccc(-c3ccccc3)cc2)c(Cl)nc(NCc2ccncc2)c1=O)NCCc1ccncc1 [Example E-0056]
% Inhibition TF-VIIa (100 νM) [1]: 0% | % Inhibition Trpysin II (100 νM) [2]: 0% | % Inhibition Thrombin II (100 νM) (Human thrombin [4]): 0%

SMILES: CC(C)CC(C)Nc1nc(Cl)c(-c2cccc(N)c2)n(CC(=O)NCc2ccc(C(=N)N)cc2)c1=O (centres unmarked) [1526-17]
IC50 [1, 5]: 80 nM | IC50 (Human factor Xa): > 30000 nM | IC50 [2, 6]: 170 nM

SMILES: CC(C(=O)NCc1ccc(C(=N)N)cc1)n1c(-c2ccccc2)c(Cl)nc(NCCc2cccc(Cl)c2)c1=O (centres unmarked) [Example 1517-23]
IC50 [1, 5]: 2300 nM | % Inhibition Factor Xa (30 µM) (Human factor Xa; cells with % sign, and bare 0): 0% | IC50 [2, 6]: 1400 nM

SMILES: O=C(Cn1c(-c2ccc(-c3ccccc3)cc2)c(Cl)nc(NCCN2CCOCC2)c1=O)NCCc1ccncc1 [Example E-0055]
% Inhibition TF-VIIa (100 νM) [1]: 0% | % Inhibition Trpysin II (100 νM) [2]: 0% | % Inhibition Thrombin II (100 νM) (Human thrombin [4]): 0%

SMILES: CC(C(=O)NCc1ccc(C(=N)N)cc1)n1c(-c2ccccc2)c(Cl)nc(NCCc2ccccc2)c1=O (centres unmarked) [Example 1517-17]
IC50 [1, 5]: 1800 nM | % Inhibition Factor Xa (30 µM) (Human factor Xa; cells with % sign, and bare 0): 0% | IC50 [2, 6]: 850 nM

SMILES: CC(C(=O)NCc1ccc(C(=N)N)cc1)n1c(-c2ccccc2)c(Cl)nc(NC2CCC2)c1=O (centres unmarked) [Example 1517-09]
IC50 [1, 5]: 2600 nM | % Inhibition Factor Xa (30 µM) (Human factor Xa; cells with % sign, and bare 0): 0% | IC50 [2, 6]: 1500 nM

SMILES: COCC(C)Nc1nc(Cl)c(-c2ccccc2)n(CC(=O)NCc2ccc(C(=N)N)cc2)c1=O (centres unmarked) [1512-07]
IC50 ([1]; read-out: IC50 TF-VIIa): 3600 nM | % Inhibition Factor Xa (30 µM) (Human factor Xa): 4%

SMILES: C[C@H](Nc1nc(Cl)c(-c2cccc(N)c2)n(CC(=O)NCc2ccc(C(=N)N)cc2)c1=O)C(=O)O [Example 135]
% Inhibition Factor Xa at 100 μM (Human factor Xa): 6% at

SMILES: O=C(Cn1c(-c2ccc(-c3ccccc3)cc2)c(Cl)nc(NCCc2ccncc2)c1=O)NCCc1ccncc1 [Example E-0054]
% Inhibition Thrombin II (100 νM) (Human thrombin [4]): 0%

SMILES: N=C(N)c1ccc(CNC(=O)Cn2c(-c3cccc(N)c3)c(Cl)nc(NCCCCCC(N)=O)c2=O)cc1 [1543-11]
IC50 [1, 5]: 70 nM | % Inhibition Factor Xa (30 µM) (Human factor Xa; cells with % sign, and bare 0): 24% | IC50 [2, 6]: 40 nM

SMILES: CCN(CC)CC(C)Nc1nc(Cl)c(-c2cccc(N)c2)n(CC(=O)NCc2ccc(C(=N)N)cc2)c1=O (centres unmarked) [1543-25]
IC50 [1, 5]: 280 nM | % Inhibition Factor Xa (30 µM) (Human factor Xa; cells with % sign, and bare 0): 26% | IC50 [2, 6]: 50 nM

SMILES: CC(C(=O)NCc1ccc(C(=N)N)cc1)n1c(-c2ccccc2)c(Cl)nc(NCCc2ccccc2)c1=O (centres unmarked) [Example 1517-15]
IC50 [1, 5]: 3100 nM | % Inhibition Factor Xa (30 µM) (Human factor Xa; cells with % sign, and bare 0): 0% | IC50 [2, 6]: 1500 nM

SMILES: CC(C(=O)NCc1ccc(C(=N)N)cc1)n1c(-c2ccccc2)c(Cl)nc(NCc2ccccc2)c1=O (centres unmarked) [Example 1517-05]
IC50 [1, 5]: 4600 nM | % Inhibition Factor Xa (30 µM) (Human factor Xa; cells with % sign, and bare 0): 0% | IC50 [2, 6]: 1200 nM

SMILES: CC(CC(=O)O)Nc1nc(Cl)c(-c2cccc(N)c2)n(CC(=O)NCc2ccc(C(=N)N)cc2)c1=O (centres unmarked) [Example 130]
% Inhibition Factor Xa at 100 μM (Human factor Xa): 24% at

SMILES: CC(C(=O)NCc1ccc(C(=N)N)cc1)n1c(-c2ccccc2)c(Cl)nc(NCc2ccccc2)c1=O (centres unmarked) [Example 1517-03]
IC50 [1, 5]: 9000 nM | % Inhibition Factor Xa (30 µM) (Human factor Xa; cells with % sign, and bare 0): 0% | IC50 [2, 6]: 2000 nM

SMILES: N=C(N)c1ccc(CNC(=O)Cn2c(-c3cccc(N)c3)c(Cl)nc(NC(CC(=O)O)c3ccccc3)c2=O)cc1 (racemic) [Example 131]
IC50 ([1]; read-out: IC50 TF-VIIa, cell printed 'at 100 μM', cell adds 'at 100 μM'): 140 nM | % Inhibition Factor Xa at 100 μM (Human factor Xa): 21% at | IC50 ([2]; read-out: IC50 Trypsin II, cell printed 'at 100 μM', cell adds 'at 100 μM'): 48 nM

SMILES: O=C(Cn1c(-c2ccc(-c3ccccc3)cc2)c(Cl)nc(NCCc2cccnc2)c1=O)NCCc1ccncc1 [Example E-0053]
% Inhibition TF-VIIa (100 νM) [1]: 0% | % Inhibition Trpysin II (100 νM) [2]: 0% | % Inhibition Thrombin II (100 νM) (Human thrombin [4]): 0%

SMILES: O=C(Cn1c(-c2ccc(-c3ccccc3)cc2)c(Cl)nc(NCCc2cccc(Cl)c2)c1=O)NCCc1cccnc1 [Example E-0116]
% Inhibition Trpysin II (100 νM) [2]: 10% | % Inhibition Thrombin II (100 νM) (Human thrombin [4]): 0%

SMILES: O=C(Cn1c(-c2ccc(-c3ccccc3)cc2)c(Cl)nc(NCc2ccccc2)c1=O)NCCc1ccncc1 [Example E-0049]
% Inhibition TF-VIIa (100 νM) [1]: 2% | % Inhibition Trpysin II (100 νM) [2]: 0%

More lines, now with the values ahead:

% Inhibition Factor Xa at 100 μM (Human factor Xa): 43% at
SMILES: CC(C)Nc1nc(Cl)c(-c2cc(N)cc(C(=O)NCc3ccc(Cl)cc3Cl)c2)n(CC(=O)NCc2ccc(C(=N)N)cc2)c1=O [Example 128-5]

% Inhibition TF-VIIa (100 νM) ([1]; inhibitor at 100 νM): 0% | % Inhibition Trpysin II (100 νM) ([2]; inhibitor at 100 νM): 5%
SMILES: O=C(Cn1c(-c2ccc(Cl)cc2)c(Cl)nc(NCCc2cccnc2)c1=O)NCCc1ccncc1 [Example E-0021]

% Inhibition TF-VIIa (100 νM) ([1]; inhibitor at 100 νM): 0% | % Inhibition Trpysin II (100 νM) ([2]; inhibitor at 100 νM): 0%
SMILES: O=C(Cn1c(Cc2ccccc2)c(Cl)nc(NCc2ccncc2)c1=O)NCCc1ccncc1 [Example E-0064]

% Inhibition TF-VIIa (100 νM) ([1]; inhibitor at 100 νM): 0% | % Inhibition Trpysin II (100 νM) ([2]; inhibitor at 100 νM): 8%
SMILES: COc1ccc(-c2c(Cl)nc(NCc3ccccc3)c(=O)n2CC(=O)NCCc2cccnc2)cc1 [Example E-0098]

% Inhibition TF-VIIa (100 νM) ([1]; inhibitor at 100 νM): 0% | % Inhibition Trpysin II (100 νM) ([2]; inhibitor at 100 νM): 3%
SMILES: O=C(Cn1c(-c2ccc(Cl)cc2)c(Cl)nc(NCCc2ccccc2)c1=O)NCCc1ccncc1 [Example E-0026]

% Inhibition TF-VIIa (100 νM) ([1]; inhibitor at 100 νM): 0% | % Inhibition Trpysin II (100 νM) ([2]; inhibitor at 100 νM): 9%
SMILES: O=C(Cn1c(-c2cccc(Cl)c2)c(Cl)nc(NCc2ccccc2)c1=O)NCCc1ccncc1 [Example E-0085]

% Inhibition Factor Xa at 100 μM (Human factor Xa): 44% at
SMILES: CC(C)Nc1nc(Cl)c(-c2cc(N)cc(C(=O)NCc3ccc(Br)cc3)c2)n(CC(=O)NCc2ccc(C(=N)N)cc2)c1=O [Example 128-8]

% Inhibition TF-VIIa (100 νM) ([1]; inhibitor at 100 νM): 0% | % Inhibition Trpysin II (100 νM) ([2]; inhibitor at 100 νM): 7%
SMILES: O=C(Cn1c(-c2cccc(Cl)c2)c(Cl)nc(NCCc2ccccc2)c1=O)NCCc1cccnc1 [Example E-0077]

% Inhibition TF-VIIa (100 νM) ([1]; inhibitor at 100 νM): 0% | % Inhibition Trpysin II (100 νM) ([2]; inhibitor at 100 νM): 3%
SMILES: COc1ccc(-c2c(Cl)nc(NCCc3ccncc3)c(=O)n2CC(=O)NCCc2ccncc2)cc1 [Example E-0038]

% Inhibition TF-VIIa (100 νM) ([1]; inhibitor at 100 νM): 2% | % Inhibition Trpysin II (100 νM) ([2]; inhibitor at 100 νM): 6%
SMILES: O=C(Cn1c(-c2cccc(Cl)c2)c(Cl)nc(NCCc2ccc(Cl)cc2)c1=O)NCCc1cccnc1 [Example E-0083]
